Reference: ChEMBL document CHEMBL5385929, “Tabersonine Enhances Olaparib Sensitivity through FHL1-Mediated Epithelial-Mesenchymal Transition in an Ovarian Tumor” (J Nat Prod, 2024)
Active and inactive are the calls of the source. The calls are words filed in the database; no cut-off is given here.

Columns and labels:
SK-OV-3 [1] = experiment: Potentiation of olaparib sensitivity in human SK-OV-3 cells assessed as inhibition of cell viability at 10 uM measured after 5 days in presence of olaparib by CCK8 assay; format: functional, cell-based; settings: time 5.0 day
A2780 [2] = experiment: Synergistic antiproliferative activity against human A2780 cells assessed as combination index for reduction of cell viability in presence of olaparib by CCK8 assay; format: functional
SK-OV-3 [3] = experiment: Synergistic antiproliferative activity against human SK-OV-3 cells assessed as combination index for reduction of cell viability in presence of olaparib by CCK8 assay; format: functional
A2780 [4] = experiment: Potentiation of olaparib sensitivity in human A2780 cells assessed as induction of DNA damage response by measuring increase in tail moment at 10 uM measured after 48 hrs in presence of olaparib by alkaline comet assay; format: functional, cell-based
[5] = Toxicity in BALB/c mouse xenografted with human A2780 cells assessed as effect on body weight at 5 to 15 mg/kg, ip administered every other day for 2 weeks; format: organism-based; settings: in vivo, 336 h, dose 5-15 mg/kg
A2780 [6] = experiment: Antitumor activity against human A2780 cells xenografted in BALB/c mouse assessed as decrease in tumor volume at 5 to 15 mg/kg, ip administered every other day for 2 weeks; format: functional, organism-based; settings: dose 5-15 mg/kg
A2780 [7] = experiment: Potentiation of olaparib-induced antitumor activity against human A2780 cells xenografted in BALB/c mouse assessed as decrease in tumor volume at 15 mg/kg, ip co-administered with olaparib for 2 weeks; format: functional, organism-based
A2780 [8] = experiment: Downregulation of EMT signalling in human A2780 cells assessed as downregulation of N-cadherin protein expression at 10 uM by western blot analysis; format: functional, cell-based
A2780 [9] = experiment: Potentiation of olaparib sensitivity in human A2780 cells assessed as downregulation of EMT signaling by measuring downregulation of N-cadherin protein expression at 10 uM in presence of olaparib by western blot analysis; format: functional, cell-based
SK-OV-3 [10] = experiment: Potentiation of olaparib sensitivity in human SK-OV-3 cells assessed as downregulation of EMT signaling by measuring upregulation of E-cadherin protein expression at 10 uM in presence of olaparib by western blot analysis; format: functional, cell-based
SK-OV-3 [11] = experiment: Inhibition of cell invasion in human SK-OV-3 cells at 10 uM measured after 48 hrs by Transwell assay; format: functional, cell-based
A2780 [12] = experiment: Potentiation of olaparib sensitivity in human A2780 cells assessed as inhibition of cell invasion at 10 uM measured after 48 hrs in presence of olaparib by Transwell assay; format: functional, cell-based
SK-OV-3 [13] = experiment: Potentiation of olaparib sensitivity in human SK-OV-3 cells assessed as inhibition of cell invasion at 10 uM measured after 48 hrs in presence of olaparib by Transwell assay; format: functional, cell-based
A2780 [14] = experiment: Inhibition of cell migration in human A2780 cells at 10 uM measured after 24 to 48 hrs by wound healing assay; format: functional, cell-based; settings: time 24-48 hrs
SK-OV-3 [15] = experiment: Inhibition of cell migration in human SK-OV-3 cells at 10 uM measured after 24 to 48 hrs by wound healing assay; format: functional, cell-based; settings: time 24-48 hrs
A2780 [16] = experiment: Upregulation of FHL1 protein expression in human A2780 cells by western blot analysis; format: functional, cell-based; settings: dose 5-20 µM
A2780 [17] = experiment: Effect on FHL1 mRNA expression in human A2780 cells at 5 to 20 uM by real-time PCR analysis; format: functional, cell-based; settings: dose 5-20 µM
A2780 [18] = experiment: Downregulation of EMT signalling in human A2780 cells transfected with shFHL1-1 RNA assessed as E-cadherin protein expression at 10 uM by western blot analysis; format: functional, cell-based
A2780 [19] = experiment: Downregulation of EMT signalling in human A2780 cells transfected with shFHL1-1 RNA assessed as vimentin protein expression at 10 uM by western blot analysis; format: functional, cell-based
A2780 [20] = experiment: Downregulation of EMT signalling in human A2780 cells transfected with shFHL1-2 RNA assessed as N-cadherin protein expression at 10 uM by western blot analysis; format: functional, cell-based
A2780 [21] = experiment: Downregulation of EMT signalling in human A2780 cells transfected with shFHL1-2 RNA assessed as vimentin protein expression at 10 uM by western blot analysis; format: functional, cell-based
SK-OV-3 [22] = experiment: Downregulation of EMT signalling in human SK-OV-3 cells transfected with shFHL1-2 RNA assessed as N-cadherin protein expression at 10 uM by western blot analysis; format: functional, cell-based
A2780 [23] = experiment: Inhibition of cell invasion in human A2780 cells transfected with shFHL1-1 RNA at 10 uM measured after 48 hrs by Transwell assay; format: functional, cell-based
SK-OV-3 [24] = experiment: Inhibition of cell invasion in human SK-OV-3 cells transfected with shFHL1-2 RNA at 10 uM measured after 48 hrs by Transwell assay; format: functional, cell-based
SK-OV-3 [25] = experiment: Inhibition of cell migration in human SK-OV-3 cells transfected with shFHL1-1 RNA at 10 uM measured after 24 to 48 hrs by wound healing assay; format: functional, cell-based; settings: time 24-48 hrs
A2780 [26] = experiment: Potentiation of olaparib sensitivity in human A2780 cells transfected with shFLH1-1 RNA assessed as downregulation of EMT signaling by measuring N-cadherin protein expression at 10 uM in presence of olaparib by western blot analysis; format: functional, cell-based
A2780 [27] = experiment: Potentiation of olaparib sensitivity in human A2780 cells transfected with shFLH1-2 RNA assessed as downregulation of EMT signaling by measuring N-cadherin protein expression at 10 uM in presence of olaparib by western blot analysis; format: functional, cell-based
A2780 [28] = experiment: Potentiation of olaparib sensitivity in human A2780 cells transfected with shFLH1-2 RNA assessed as downregulation of EMT signaling by measuring vimentin protein expression at 10 uM in presence of olaparib by western blot analysis; format: functional, cell-based
SK-OV-3 [29] = experiment: Potentiation of olaparib sensitivity in human SK-OV-3 cells transfected with shFLH1-1 RNA assessed as downregulation of EMT signaling by measuring N-cadherin protein expression at 10 uM in presence of olaparib by western blot analysis; format: functional, cell-based
SK-OV-3 [30] = experiment: Potentiation of olaparib sensitivity in human SK-OV-3 cells transfected with shFHL1-1 RNA assessed as inhibition of cell invasion at 10 uM measured after 48 hrs in presence of olaparib by Transwell assay; format: functional, cell-based
A2780 [31] = experiment: Potentiation of olaparib sensitivity in human A2780 cells transfected with shFHL1-1 RNA assessed as inhibition of cell migration at 10 uM measured after 24 to 48 hrs in presence of olaparib by wound healing assay; format: functional, cell-based; settings: time 24-48 hrs
A2780 [32] = experiment: Potentiation of olaparib-induced antitumor activity against shFHL1-1 RNA-transfected human A2780 cells xenografted in BALB/c mouse assessed as decrease in tumor weight at 15 mg/kg, ip co-administered with olaparib for 2 weeks; format: functional, organism-based
Mus musculus = experiment: Potentiation of olaparib sensitivity in BALB/c mouse xenografted with shNC RNA-transfected human A2780 cells assessed as increase in FHL1 protein expression in tumor at 15 mg/kg, ip co-administered with olaparib for 2 weeks by immunohistochemistry; format: functional, organism-based
A2780 [33] = experiment: Potentiation of olaparib-induced antitumor activity against shFHL1-1 RNA-transfected human A2780 cells xenografted in BALB/c mouse assessed as decrease in lung metastatic nodules at 15 mg/kg, ip co-administered with olaparib every other day from day 6 of tumor cell inoculation and measured on day 30 post-tumor cell inoculation by H and E staining based bright field microscopic analysis; format: functional, organism-based; settings: time 24.0 day

Structure (SMILES): CC[C@]12C=CCN3CC[C@]4(C(=C(C(=O)OC)C1)Nc1ccccc14)[C@@H]32 [TABERSONINE]
- Activity (SK-OV-3 [1]): Active
- CI (A2780 [2]): <1
- CI (SK-OV-3 [3]): <1
- Activity (A2780 [4]): Active
- Activity [5]: Non-Toxic
- Activity (A2780 [6]): Active
- Activity (A2780 [7]): Active
- inhibition (A2780 [8]): Active
- Activity (A2780 [9]): Active
- Activity (SK-OV-3 [10]): Active
- inhibition (SK-OV-3 [11]): Active
- Activity (A2780 [12]): Active
- Activity (SK-OV-3 [13]): Active
- inhibition (A2780 [14]): Active
- inhibition (SK-OV-3 [15]): Active
- Activity (A2780 [16]): Dose-Dependent Effect
- Activity (A2780 [17]): inactive
- inhibition (A2780 [18]): inactive
- inhibition (A2780 [19]): inactive
- inhibition (A2780 [20]): inactive
- inhibition (A2780 [21]): inactive
- inhibition (SK-OV-3 [22]): inactive
- inhibition (A2780 [23]): inactive
- inhibition (SK-OV-3 [24]): inactive
- inhibition (SK-OV-3 [25]): inactive
- Activity (A2780 [26]): inactive
- Activity (A2780 [27]): inactive
- Activity (A2780 [28]): inactive
- Activity (SK-OV-3 [29]): inactive
- Activity (SK-OV-3 [30]): inactive
- Activity (A2780 [31]): inactive
- Activity (A2780 [32]): inactive
- Activity (Mus musculus): Active
- Activity (A2780 [33]): inactive
